In patent US20130156701A1, “METHOD OF PREPARING ETHACRYNIC AMIDE DERIVATIVES AND APPLICATION THEREOF” (NATIONAL TSING HUA UNIVERSITY, priority 2011, published 2013):
Blank lines part the entries; values can stand above or below the compound they belong to.

What was measured:
293T cells = experiment: trypan blue exclusion assay, cell viability after FBuEA treatment; format: cell-based, human; settings: 48 hr, read-out: IC50 (concentration required to decrease 50% cell viability)
Procedure: (§1) Human lung cancer cell line A549, human erythroleukemia cell line (HEL) and human embryonic kidney 293T cell line were cultivated in the RPMI-1640 medium (GIBCO) supplemented with 10% fetal bovine serum, 100 U/mL penicillin, 0.1 mg/mL streptomycin and 2 mM L-glutamine (GIBCO) at 37° C. in 5% CO2 incubator. 293T was a non-tumorigenic cell line as a […] control in cell viability experiment.
(§2) To detect the cytotoxicity effects of FBuEA (compound of formula 10), A549 and HEL were treated with different concentration of FBuEA for 48 hr and compared with 293T. For the cytotoxicity study, trypan blue exclusion assay was performed to quantity the cell viability, 5×10^4 cells and the medium with different concentration of FBuEA (from 0 to 20 µM) were loaded in the 48-well plates for 48 hr. After 48 hr, cells mixed with trypan blue (GIBICO), just count the cells that have excluded the dye. Each count repeated three times and calculated the average of concentration. The cytotoxicity effects of EBuEA to A549, HEL and 293T cells were indicated by IC50 value (comparing with untreated cells, the concentration of EBuEA required to decrease 50% cell viability).

HEL cells = experiment: as above; format: cell-based, human; settings: 48 hr, read-out: IC50 (concentration required to decrease 50% cell viability)
Procedure: as §1, §2

A549 cells = experiment: as above; format: cell-based, human; settings: 48 hr, read-out: IC50 (concentration required to decrease 50% cell viability)
Procedure: as §1, §2

[1] = PET imaging of the liver of the TAA-treated CCA rat; format: in vivo; settings: CCA rat receiving TAA for 18 weeks
Procedure: The rats were anesthetized using 1 L/min 2% isoflurane (100% oxygen). After the rats had been anesthetized, they were given ^18F-FBuEA (11 MBq) via the lateral tail vein. After the injection, the rats were fixed in the prone position on a carbon bed.
Dynamic imaging (0-120 min) single-frame scans were acquired with a small-animal PET camera (microPET R4; Concorde Microsystems Inc.). The region of interest (ROI) was disposed in the tumor region by hand, the image reconstructions of ROI were processed with ASIPro software (Concorde Microsystems INC.). Using microPET, the tumor volumes were determined by the intake of ^18F-FBuEA (% ID/g).
Being a promising imaging probe, [^18F]FBuEA should be capable of detecting a disease at its early stage. […] Then the CCA rat along with the normal rat was subsequently imaged with [^18F]FBuEA 5 days later. […] The same CCA rat after feeding for 23 weeks of TAA was imaged again with [^18F]FBuEA but the imaging time was shortened to 5-10 min for optimization test (FIG. 11(D) and (E)). Whereas the tumor lesion was still dark and the cold spot was similar to that of 18 week rat. From the above comparisons, the optimized imaging sampling times appeared to be 0-30 min.

[2] = parent ethacrynic acid, comparison value; cited from earlier work

IC50 (A549 cells): 14 µM
Structure (SMILES): C=C(CC)C(=O)c1ccc(OCC(=O)NCCCCF)c(Cl)c1Cl [FBuEA, N-(4-fluorobutyl)ethacrynic amide]
IC50 (293T cells): 20 µM
IC50 (HEL cells): 5 µM

Structure (SMILES): OC[C@H]1OC(O)[C@H]([18F])[C@@H](O)[C@@H]1O (some centres unmarked) [[^18F]FDG, [^18F]fluorodeoxyglucose, reference compound]
PET signal at the tumor lesion [1]: significant hot spot

Structure (SMILES): C=C(CC)C(=O)c1ccc(OCC(=O)O)c(Cl)c1Cl [ethacrynic acid]
plasma half-life [2]: 30 to 60 min
